Data: patent publication US20260022142A1, “MACROCYCLIC IMMUNOMODULATORS” (Bristol-Myers Squibb Company, priority 2022, published 2026)
Bridge positions count the residues as written; N and C are the ends. Square brackets hold non-standard residues; d marks the D form. Peptide text beside a SMILES is read from it. * marks the point of attachment. Phe(4-CH2CH2COOH) = N[C@@H](Cc1ccc(CCC(=O)O)cc1)C(=O)O; Bip = N[C@@H](Cc1ccc(-c2ccccc2)cc1)C(=O)O; Phe(3-Me) = Cc1cccc(C[C@H](N)C(=O)O)c1; Cha = N[C@@H](CC1CCCCC1)C(=O)O; Cit = NC(=O)NCCC[C@H](N)C(=O)O; Carboxymethyl = O=C(O)C*; Orn = NCCC[C@H](N)C(=O)O; dNMeA = CN[C@H](C)C(=O)O; Aun = NCCCCCCCCCCC(=O)O; Dab = NCC[C@H](N)C(=O)O; Dap = NC[C@H](N)C(=O)O

Target: T1, PD-1/PD-L1 interaction (PE-labeled human PD-L1-Ig binding to Jurkat cell line over-expressing human PD-1) (Homo sapiens, UniProt Q15116)
T1 construct: expressed in transfected cells; host or cells: Jurkat
T1 sequence (Q15116 25-288): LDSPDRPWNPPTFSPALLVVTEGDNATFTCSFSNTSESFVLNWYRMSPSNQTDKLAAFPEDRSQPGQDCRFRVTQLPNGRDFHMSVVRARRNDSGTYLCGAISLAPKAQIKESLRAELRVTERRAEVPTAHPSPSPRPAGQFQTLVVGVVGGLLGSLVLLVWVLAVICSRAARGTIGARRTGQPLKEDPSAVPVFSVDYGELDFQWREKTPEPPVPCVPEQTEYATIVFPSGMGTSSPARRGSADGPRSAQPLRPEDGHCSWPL
Experiment: Jurkat-PD-1 Cell Binding High-Content Screening Assay (CBA)
Assay type: cell-based
Conditions: Jurkat cell line over-expressing human PD-1; PE-labeled PD-L1-Ig 20 nM final; read-out: Jurkat hPD1-PDL1 IC50
How it was run: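 Human PD-L1-Ig carrying a covalent PE label on its Ig tag serves as the probe, applied at 20 nM final to compound-treated (2 h, 37° C) Jurkat-hPD-1 cells in medium with 10% fetal calf serum. After one hour, fixation and nuclear staining precede high-content image analysis.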

IC50 | SMILES
9.9 nM | Cc1cccc(C[C@@H]2NC(=O)[C@H](CC(=O)O)NC(=O)[C@H](Cc3ccc(OCC(=O)O)cc3)NC(=O)[C@H](CCCNC(=N)N)NC(=O)CSC[C@@H](C(=O)N[C@@H](CCCCN)C(=O)NCCCCCCCCCCC(=O)O)NC(=O)[C@H](CCCN)NC(=O)[C@H](C(C)C)NC(=O)[C@H](CC3CCCCC3)NC(=O)[C@H](CCN)NC(=O)[C@@H](CC(C)C)NC(=O)[C@H](CCN)NC(=O)[C@H](CCCNC(N)=O)NC(=O)[C@H](Cc3ccc(-c4ccccc4)cc3)NC(=O)[C@H](C(C)C)NC2=O)c1 [Compound 2805] ({CH2CO}-RY(Carboxymethyl)D[Phe(3-Me)]V[Bip][Cit][Dab][dL][Dab][Cha]V[Orn]CK[Aun]-OH; thioether N-14)
16.5 nM | Cc1cccc(C[C@@H]2NC(=O)[C@H](CC(=O)O)NC(=O)[C@H](Cc3ccc(OCC(=O)O)cc3)NC(=O)[C@H](CN)NC(=O)CSC[C@@H](C(=O)N[C@H](CO)C(=O)N[C@@H](CCC(=O)O)C(=O)NCCCCCCCCCCC(=O)O)NC(=O)[C@H]([C@@H](C)O)NC(=O)[C@H](C(C)C)NC(=O)[C@H](CC3CCCCC3)NC(=O)[C@H](CCN)NC(=O)[C@@H](CC(C)C)NC(=O)[C@H](CCCN)NC(=O)[C@H](CCCNC(N)=O)NC(=O)[C@H](Cc3ccc(-c4ccccc4)cc3)NC(=O)[C@H](C(C)C)NC2=O)c1 [Compound 2807] ({CH2CO}-[Dap]Y(Carboxymethyl)D[Phe(3-Me)]V[Bip][Cit][Orn][dL][Dab][Cha]VTC[dS]E[Aun]-OH; thioether N-14)
180 nM | Cc1cccc(C[C@@H]2NC(=O)[C@H](CC(=O)O)NC(=O)[C@H](Cc3ccc(OCC(=O)O)cc3)NC(=O)[C@H](CN)NC(=O)CSC[C@@H](C(=O)N(C)[C@H](C)C(=O)N[C@@H](CCC(=O)O)C(=O)NCCCCCCCCCCC(=O)O)NC(=O)[C@H]([C@@H](C)O)NC(=O)[C@H](C(C)C)NC(=O)[C@H](CC3CCCCC3)NC(=O)[C@H](CCN)NC(=O)[C@@H](CC(C)C)NC(=O)[C@H](CCCN)NC(=O)[C@H](CCCNC(N)=O)NC(=O)[C@H](Cc3ccc(-c4ccccc4)cc3)NC(=O)[C@H](C(C)C)NC2=O)c1 [Compound 2809] ({CH2CO}-[Dap]Y(Carboxymethyl)D[Phe(3-Me)]V[Bip][Cit][Orn][dL][Dab][Cha]VTC[dNMeA]E[Aun]-OH; thioether N-14)
34.1 nM | Cc1cccc(C[C@@H]2NC(=O)[C@H](CC(=O)O)NC(=O)[C@H](Cc3ccc(CCC(=O)O)cc3)NC(=O)[C@H](CN)NC(=O)CSC[C@@H](C(=O)N[C@@H](CCN)C(=O)N[C@@H](CO)C(=O)NCCCCCCCCCCC(=O)O)NC(=O)[C@H]([C@@H](C)O)NC(=O)[C@H](C(C)C)NC(=O)[C@H](CC3CCCCC3)NC(=O)[C@H](CCN)NC(=O)[C@@H](CC(C)C)NC(=O)[C@H](CCCN)NC(=O)[C@H](CCCNC(N)=O)NC(=O)[C@H](Cc3ccc(-c4ccccc4)cc3)NC(=O)[C@H](C(C)C)NC2=O)c1 [Compound 2811] ({CH2CO}-[Dap][Phe(4-CH2CH2COOH)]D[Phe(3-Me)]V[Bip][Cit][Orn][dL][Dab][Cha]VTC[Dab]S[Aun]-OH; thioether N-14)
24 nM | Cc1cccc(C[C@@H]2NC(=O)[C@H](CC(=O)O)NC(=O)[C@H](Cc3ccc(CCC(=O)O)cc3)NC(=O)[C@H](CN)NC(=O)CSC[C@@H](C(=O)N[C@@H](CCCN)C(=O)N[C@@H](CO)C(=O)NCCCCCCCCCCC(=O)O)NC(=O)[C@H]([C@@H](C)O)NC(=O)[C@H](C(C)C)NC(=O)[C@H](CC3CCCCC3)NC(=O)[C@H](CCN)NC(=O)[C@@H](CC(C)C)NC(=O)[C@H](CCCN)NC(=O)[C@H](CCCNC(N)=O)NC(=O)[C@H](Cc3ccc(-c4ccccc4)cc3)NC(=O)[C@H](C(C)C)NC2=O)c1 [Compound 2812] ({CH2CO}-[Dap][Phe(4-CH2CH2COOH)]D[Phe(3-Me)]V[Bip][Cit][Orn][dL][Dab][Cha]VTC[Orn]S[Aun]-OH; thioether N-14)
23.9 nM | Cc1cccc(C[C@@H]2NC(=O)[C@H](CC(=O)O)NC(=O)[C@H](Cc3ccc(OCC(=O)O)cc3)NC(=O)[C@H](CCCNC(=N)N)NC(=O)CSC[C@@H](C(=O)N[C@@H](CCN)C(=O)NCCCCCCCCCCC(=O)O)NC(=O)[C@@H](CCC(N)=O)NC(=O)[C@H](C(C)C)NC(=O)[C@H](CC3CCCCC3)NC(=O)[C@H](CCN)NC(=O)[C@@H](CC(C)C)NC(=O)[C@H](CCN)NC(=O)[C@H](CCCNC(N)=O)NC(=O)[C@H](Cc3ccc(-c4ccccc4)cc3)NC(=O)[C@H](C(C)C)NC2=O)c1 [Compound 2820] ({CH2CO}-RY(Carboxymethyl)D[Phe(3-Me)]V[Bip][Cit][Dab][dL][Dab][Cha]V[dQ]C[Dab][Aun]-OH; thioether N-14)
10.9 nM | Cc1cccc(C[C@@H]2NC(=O)[C@H](CC(=O)O)NC(=O)[C@H](Cc3ccc(OCC(=O)O)cc3)NC(=O)[C@H](CCN)NC(=O)CSC[C@@H](C(=O)N[C@@H](CCN)C(=O)NCCCCCCCCCCC(=O)O)NC(=O)[C@H]([C@@H](C)O)NC(=O)[C@H](C(C)C)NC(=O)[C@H](CC3CCCCC3)NC(=O)[C@H](CCN)NC(=O)[C@@H](CC(C)C)NC(=O)[C@H](CCCN)NC(=O)[C@H](CCCNC(N)=O)NC(=O)[C@H](Cc3ccc(-c4ccccc4)cc3)NC(=O)[C@H](C(C)C)NC2=O)c1 [Compound 2821] ({CH2CO}-[Dab]Y(Carboxymethyl)D[Phe(3-Me)]V[Bip][Cit][Orn][dL][Dab][Cha]VTC[Dab][Aun]-OH; thioether N-14)

The remaining lines, values behind:

SMILES | IC50
Cc1cccc(C[C@@H]2NC(=O)[C@H](CC(=O)O)NC(=O)[C@H](Cc3ccc(CCC(=O)O)cc3)NC(=O)[C@H](CCCNC(=N)N)NC(=O)CSC[C@@H](C(=O)N[C@@H](CCN)C(=O)N[C@@H](CO)C(=O)NCCCCCCCCCCC(=O)O)NC(=O)[C@H](CCC(=O)O)NC(=O)[C@H](C(C)C)NC(=O)[C@H](CC3CCCCC3)NC(=O)[C@H](CCN)NC(=O)[C@@H](CC(C)C)NC(=O)[C@H](CCN)NC(=O)[C@H](CCCNC(N)=O)NC(=O)[C@H](Cc3ccc(-c4ccccc4)cc3)NC(=O)[C@H](C(C)C)NC2=O)c1 [Compound 2813] ({CH2CO}-R[Phe(4-CH2CH2COOH)]D[Phe(3-Me)]V[Bip][Cit][Dab][dL][Dab][Cha]VEC[Dab]S[Aun]-OH; thioether N-14) | 181 nM
Cc1cccc(C[C@@H]2NC(=O)[C@H](CC(=O)O)NC(=O)[C@H](Cc3ccc(CCC(=O)O)cc3)NC(=O)[C@H](CCCNC(=N)N)NC(=O)CSC[C@@H](C(=O)N[C@@H](CCCN)C(=O)N[C@@H](CO)C(=O)NCCCCCCCCCCC(=O)O)NC(=O)[C@H](CCC(=O)O)NC(=O)[C@H](C(C)C)NC(=O)[C@H](CC3CCCCC3)NC(=O)[C@H](CCN)NC(=O)[C@@H](CC(C)C)NC(=O)[C@H](CCN)NC(=O)[C@H](CCCNC(N)=O)NC(=O)[C@H](Cc3ccc(-c4ccccc4)cc3)NC(=O)[C@H](C(C)C)NC2=O)c1 [Compound 2814] ({CH2CO}-R[Phe(4-CH2CH2COOH)]D[Phe(3-Me)]V[Bip][Cit][Dab][dL][Dab][Cha]VEC[Orn]S[Aun]-OH; thioether N-14) | 23.6 nM
CC(C)C[C@H]1NC(=O)[C@H](CCN)NC(=O)[C@H](CCCNC(N)=O)NC(=O)[C@H](Cc2ccc(-c3ccccc3)cc2)NC(=O)[C@H](C(C)C)NC(=O)[C@H](Cc2c[nH]c3ccccc23)NC(=O)[C@H](CC(=O)O)NC(=O)[C@H](Cc2ccc(OCC(=O)O)cc2)NC(=O)[C@H](CCCNC(=N)N)NC(=O)CSC[C@@H](C(=O)N[C@@H](CCCN)C(=O)NCCCCCCCCCCC(=O)O)NC(=O)[C@@H](CCC(N)=O)NC(=O)[C@H](C(C)C)NC(=O)[C@H](CC2CCCCC2)NC(=O)[C@H](CCN)NC1=O [Compound 2816] ({CH2CO}-RY(Carboxymethyl)DWV[Bip][Cit][Dab][dL][Dab][Cha]V[dQ]C[Orn][Aun]-OH; thioether N-14) | 74.9 nM
CC(C)C[C@H]1NC(=O)[C@H](CCN)NC(=O)[C@H](Cc2ccc(O)cc2)NC(=O)[C@H](Cc2ccc(-c3ccccc3)cc2)NC(=O)[C@H](C(C)C)NC(=O)[C@H](Cc2c[nH]c3ccccc23)NC(=O)[C@H](CC(=O)O)NC(=O)[C@H](Cc2ccc(OCC(=O)O)cc2)NC(=O)[C@H](CCCNC(=N)N)NC(=O)CSC[C@@H](C(=O)N[C@@H](CCCN)C(=O)NCCCCCCCCCCC(=O)O)NC(=O)[C@@H](CCC(N)=O)NC(=O)[C@H](C(C)C)NC(=O)[C@H](CC2CCCCC2)NC(=O)[C@H](CCN)NC1=O [Compound 2817] ({CH2CO}-RY(Carboxymethyl)DWV[Bip]Y[Dab][dL][Dab][Cha]V[dQ]C[Orn][Aun]-OH; thioether N-14) | 47.1 nM
Cc1cccc(C[C@@H]2NC(=O)[C@H](CC(=O)O)NC(=O)[C@H](Cc3ccc(OCC(=O)O)cc3)NC(=O)[C@H](CCCNC(=N)N)NC(=O)CSC[C@@H](C(=O)N[C@@H](CCN)C(=O)NCCCCCCCCCCC(=O)O)NC(=O)[C@H](CCC(=O)O)NC(=O)[C@H](C(C)C)NC(=O)[C@H](CC3CCCCC3)NC(=O)[C@H](CCN)NC(=O)[C@@H](CC(C)C)NC(=O)[C@H](CCN)NC(=O)[C@H](Cc3ccc(O)cc3)NC(=O)[C@H](Cc3ccc(-c4ccccc4)cc3)NC(=O)[C@H](C(C)C)NC2=O)c1 [Compound 2818] ({CH2CO}-RY(Carboxymethyl)D[Phe(3-Me)]V[Bip]Y[Dab][dL][Dab][Cha]VEC[Dab][Aun]-OH; thioether N-14) | 23.3 nM
Cc1cccc(C[C@@H]2NC(=O)[C@H](CC(=O)O)NC(=O)[C@H](Cc3ccc(OCC(=O)O)cc3)NC(=O)[C@H](CCCNC(=N)N)NC(=O)CSC[C@@H](C(=O)N[C@@H](CCCN)C(=O)NCCCCCCCCCCC(=O)O)NC(=O)[C@H](CCC(=O)O)NC(=O)[C@H](C(C)C)NC(=O)[C@H](CC3CCCCC3)NC(=O)[C@H](CCN)NC(=O)[C@@H](CC(C)C)NC(=O)[C@H](CCN)NC(=O)[C@H](Cc3ccc(O)cc3)NC(=O)[C@H](Cc3ccc(-c4ccccc4)cc3)NC(=O)[C@H](C(C)C)NC2=O)c1 [Compound 2819] ({CH2CO}-RY(Carboxymethyl)D[Phe(3-Me)]V[Bip]Y[Dab][dL][Dab][Cha]VEC[Orn][Aun]-OH; thioether N-14) | 21 nM
